The conditions of data set [1]: cited from earlier work.
Data set [2] can be described thus: Saturation solubility of naltrexone in different media. Particulars: thermodynamic from solid, read-out: Solubility of API. In kind it is physicochemical.
Data set [3] in a line: Toxicokinetics after subcutaneous implant. In kind it is in vivo, Yucatan minipigs. The following applies: single subcutaneous implant, 1 g NTX (Group 2) vs 1 g NTX with 10 mg TCA (Group 3).
Data set [4] can be described thus: In vitro dissolution of pellets, USP dissolution apparatus II (paddle). Particulars: for Release Triamcinolone, %: n = 1.
Description: The parameters used in the dissolution study are given below.
A USP dissolution apparatus II (paddle) (Agilent Technologies, Inc., Santa Clara, CA) was used for dissolution method parameters selection. For accelerated dissolution method development multiple parameters were evaluated: • 1). temperature of the dissolution media; • 2). initial wetting of the pellet (by adding detergent and organic solvent); • 3). the mixing speed; and • 4). the pH of the dissolution media used.
Water was used as the starting media. A sampling timepoint (at 66 or 90 hours) was used for initial dissolution parameter assessment.
The dissolution tests were performed in “sink” conditions where the amount of solvent was at least 3 times higher than the minimum amount of solvent required for dissolution.
Therefore, for the next step of the dissolution method development, 20% of ethanol was added to the dissolution media with a phosphate buffer.
Samples were taken at 8, 24, 48, 72 and 84 hours.

≈ marks a conversion by molar mass, not a printed value. Structures can show the parent of a compound that is named as a salt. Where two headings read alike, the source gives them in different places. A value given as a limit tells only on which side of the number the result lay.

On to `O=C1CC[C@@]2(O)[C@H]3Cc4ccc(O)c5c4[C@@]2(CCN3CC2CC2)[C@H]1O5` [naltrexone hydrochloride], for which the “solubility in EtOH” value in data set [1] was less than 1 mg/mL.

On to `O=C1CC[C@@]2(O)[C@H]3Cc4ccc(O)c5c4[C@@]2(CCN3CC2CC2)[C@H]1O5` [naltrexone, (4R,4aS,7aR,12bS)-3-(cyclopropylmethyl)-4a,9-dihydroxy-2,4,5,6,7a,13-hexahydro-1H-4,12-methanobenzofuro[3,2-e]isoquinolin-7-one], for which the solubility amounted to 770 µg/mL in data set [2] (pH 5, aqueous buffer, Hanks' Balanced Salt solution pH5.0); 5210 µg/mL (≈ 15.3 mM) in data set [2] (pH 5, aqueous buffer, PBS pH5.0 (1:5)); 3120 µg/mL (≈ 9.14 mM) in data set [2] (pH 5.5, aqueous buffer, PBS pH5.5 (1:5)); 5730 µg/mL in data set [2] (pH 5.5, aqueous with cosolvent or surfactant or cyclodextrin, 20% EtOH + 80% PBS pH5.5 (1:10)); 2910 µg/mL (≈ 8.52 mM) in data set [2] (pH 6, aqueous buffer, PBS pH6.0 (1:5)); 670 µg/mL in data set [2] (pH 7.4, aqueous buffer, Hanks' Balanced Salt solution pH7.4). Besides, the solubility was 960 µg/mL (≈ 2.81 mM) in data set [2] (pH 7.4, aqueous buffer, PBS pH7.4); 650 µg/mL in data set [2] (pH 8, aqueous buffer, Hanks' Balanced Salt solution pH8.0); 750 µg/mL (≈ 2.2 mM) in data set [2] (pH 8, aqueous buffer, PBS pH8.0). For the same molecule, the “Systemic exposure to NTX (Cmax and AUC)” value in data set [3] is given as “did not appear to be impacted”.

For the molecule `CC1(C)O[C@@H]2C[C@H]3[C@@H]4CCC5=CC(=O)C=C[C@]5(C)[C@@]4(F)[C@@H](O)C[C@]3(C)[C@]2(C(=O)CO)O1` [triamcinolone acetonide (TCA), triamcinolone acetonide], the “Release of triamcinolone acetonide (TCA) from pellets” value (“Release of triamcinolone acetonide” for short) is 24.63% in data set [4] (10 mM Acetate buffer pH 3.8, 50 RPM at 37° C., 8 hrs); 62.64% in data set [4] (10 mM Acetate buffer pH 3.8, 50 RPM at 37° C., 24 hrs); 79.58% in data set [4] (10 mM Acetate buffer pH 3.8, 50 RPM at 37° C., 48 hrs); 79.36% in data set [4] (10 mM Acetate buffer pH 3.8, 50 RPM at 37° C., 72 hrs); 17.27% in data set [4] (10 mM Acetate buffer pH 5.0, 50 RPM at 37° C., 8 hrs); 46.65% in data set [4] (10 mM Acetate buffer pH 5.0, 50 RPM at 37° C., 24 hrs). Moreover, the “Release of triamcinolone acetonide” value was found to be 69.50% in data set [4] (10 mM Acetate buffer pH 5.0, 50 RPM at 37° C., 48 hrs); 78.13% in data set [4] (10 mM Acetate buffer pH 5.0, 50 RPM at 37° C., 72 hrs); 4.93% in data set [4] (10 mM Acetate buffer pH 5.8, 50 RPM, 8 hrs); 15.62% in data set [4] (10 mM Acetate buffer pH 5.8, 50 RPM, 24 hrs); 23.89% in data set [4] (10 mM Acetate buffer pH 5.8, 50 RPM, 48 hrs); 29.78% in data set [4] (10 mM Acetate buffer pH 5.8, 50 RPM, 72 hrs). The “Release of triamcinolone acetonide” value stood at 15.30% in data set [4] (10 mM phosphate buffer pH 5.0, 50 RPM at 37° C., 8 hrs); 47.19% in data set [4] (10 mM phosphate buffer pH 5.0, 50 RPM at 37° C., 24 hrs); 75.78% in data set [4] (10 mM phosphate buffer pH 5.0, 50 RPM at 37° C., 48 hrs); 81.56% in data set [4] (10 mM phosphate buffer pH 5.0, 50 RPM at 37° C., 72 hrs); 12.51% in data set [4] (10 mM phosphate buffer pH 6.0, 50 RPM at 37° C., 8 hrs); 41.72% in data set [4] (10 mM phosphate buffer pH 6.0, 50 RPM at 37° C., 24 hrs). For the same molecule, the “Release of triamcinolone acetonide” value was found to be 74.31% in data set [4] (10 mM phosphate buffer pH 6.0, 50 RPM at 37° C., 48 hrs); 80.00% in data set [4] (10 mM phosphate buffer pH 6.0, 50 RPM at 37° C., 72 hrs); 16.66% in data set [4] (10 mM phosphate buffer pH 7.4, 150 RPM at 37° C., 8 hrs); 39.78% in data set [4] (10 mM phosphate buffer pH 7.4, 150 RPM at 37° C., 24 hrs); 52.83% in data set [4] (10 mM phosphate buffer pH 7.4, 150 RPM at 37° C., 48 hrs); 59.58% in data set [4] (10 mM phosphate buffer pH 7.4, 150 RPM at 37° C., 72 hrs). For the same molecule, the “Release of triamcinolone acetonide” value is recorded as 33.18% in data set [4] (10 mM phosphate buffer/20% EtOH pH 6.0, 50/75 RPM at 37° C., 8 hrs); 87.99% in data set [4] (10 mM phosphate buffer/20% EtOH pH 6.0, 50/75 RPM at 37° C., 24 hrs); 109.67% in data set [4] (10 mM phosphate buffer/20% EtOH pH 6.0, 50/75 RPM at 37° C., 48 hrs); 109.28% in data set [4] (10 mM phosphate buffer/20% EtOH pH 6.0, 50/75 RPM at 37° C., 72 hrs); 28.58% in data set [4] (10 mM phosphate buffer/20% EtOH pH 6.5, 50/75 RPM at 37° C., 8 hrs); 76.69% in data set [4] (10 mM phosphate buffer/20% EtOH pH 6.5, 50/75 RPM at 37° C., 24 hrs). Moreover, the “Release of triamcinolone acetonide” value in data set [4] (10 mM phosphate buffer/20% EtOH pH 6.5, 50/75 RPM at 37° C., 48 hrs) is 104.85%; in data set [4] (10 mM phosphate buffer/20% EtOH pH 6.5, 50/75 RPM at 37° C., 72 hrs), 104.64%; in data set [4] (10 mM phosphate buffer/20% EtOH pH 7.4, 50/75 RPM at 37° C., 8 hrs), 23.48%; in data set [4] (10 mM phosphate buffer/20% EtOH pH 7.4, 50/75 RPM at 37° C., 24 hrs), 64.52%; in data set [4] (10 mM phosphate buffer/20% EtOH pH 7.4, 50/75 RPM at 37° C., 48 hrs) it was 98.10%; in data set [4] (10 mM phosphate buffer/20% EtOH pH 7.4, 50/75 RPM at 37° C., 72 hrs) it was 107.29%. Besides, the “Release Triamcinolone, %” value in data set [4] (10 mM PBS pH 7.4, 50 RPM, 37° C., 66 hrs) came to 33.12%; in data set [4] (20 mM Acetate Buffer pH 3.8, 50 RPM, 37° C., 66 hrs), 83.52%; in data set [4] (0.05N HCl, pH 1, 50 RPM, 37° C., 66 hrs) it was 85.59%; in data set [4] (0.1% SLS in Water, 50 RPM, 37° C., 66 hrs) it was 39.09%; in data set [4] (20% EtOH, 80% Water, 50 RPM, 37° C., 90 hrs), 61.77%; in data set [4] (Water, 50 RPM, 37° C., 90 hrs), 31.50%. The “Release Triamcinolone, %” value in data set [4] (Water, 60 RPM, 60° C., 66 hrs) is listed as 38.63%; in data set [4] (Water, 150 RPM, 37° C., 66 hrs) it was 33.47%.
